Experimental data: patent US6218392A, “Fused pyridazine compounds” (priority 1994, dated 2001)
pIC50: −log10 of the molar value. Where a name gives a salt, the structure may show the parent alone.

Experiments:
[1] = biological target: T1, cGMP-PDE (Sus scrofa, UniProt A0A287B475); test: Inhibitory activity against cGMP-PDE prepared from swine lung; assay type: biochemical; settings: 1 mM EGTA, 1 mM cGMP as substrate, DMSO 5% or below
T1 construct: Swine lung was minched, followed by the addition of five times (by volume) as much buffer A; from tissue; host or cells: swine lung
Procedure: The enzyme activity of the cGMP-PDE prepared from swine lung was determined according to the method of Thompson et al. This determination was conducted in the presence of 1 mM EGTA by the use of 1 mM cGMP as substrate. Each compound according to the present invention was dissolved in DMSO and thereafter added to the reaction system to determine the inhibitory activity of the compound. The final concentration of DMSO in the reaction solution was controlled to 5% or below.
The preparation of cGMP-PDE was conducted as follows.
Swine lung was minched, followed by the addition of five times (by volume) as much buffer A (comprising Tris/HCl (20 mM), Mg acetate (2 mM), 2-mercaptoethanol (10 mM), EGTA (0.1 mM) and PMSF (0.2 mM) and adjusted to pH7.4). The resulting mixture was homogenized and centrifuged at 1000×g for 5 minutes. Ammonium sulfate was added to the obtained supernatant and the resulting mixture was centrifuged at 20000×g for 45 minutes to collect a fraction precipitating between 30 and 40% saturation with ammonium sulfate. This fraction was dialyzed against buffer A and passed through a column of DEAE-Toyopearl 650S (a product of Tosoh, Tokyo, Japan). The column was washed with buffer A and subjected to gradient elution with 0.05 to 0.2 M NaClibuffer A to collect a cGMP-PDE fraction.
This cGMP-PDE fraction was passed through Blue-Sepharose CL-6B (a product of Pharmacia, Uppsala, Sweden). The resulting column was washed with buffer A containing cAMP (10 mM) and NaCl (0.5 M) and eluted with buffer A containing cGMP (10 mM) and NaCl (0.5 M). The obtained fraction was dialyzed, concentrated and stored.

[2] = test system: pulmonary arterial pressure (PAP); test: Pulmonary arterial pressure lowering activity on anesthetized thoracotomized dog by intravenous administration; assay type: in vivo; settings: relative ratio to activity of sodium 1-[chloro-4-(3,4-methylenedioxybenzyl)aminoquinazolin-2-yl]piperidine-4-carboxylate
Procedure: Male and female hybrid dogs having a weight of about 10 kg were operated under enflurane anesthesia with N2 O/O2 as carrier. Each dog was thoracotomized in the left fourth intercostal space and a pressure transducer (MPC-500 mfd. by Miller) was inserted into the pulmonary artery to determine the pulmonary arterial pressure (PAP). This experiment was conducted with the mean PAP (mPAP) increased by about 10 mmHg by lowering the pressure of oxygen fed by about 40% of the normal one. Each compound according to the present invention was dissolved in Polyethylene glycol 400 (a product of Wako Pure Chemical Industries, Ltd.) in a concentration of 1 mg/ml and, if necessary, further diluted with Polyethylene glycol 400. The resulting solution was intravenously administered to the dog through a polyethylene catheter indwelling in the femoral vein.

pIC50 [1] | SMILES | PAP lowering activity [2]
8.68 | COc1ccc(CNc2nnc(N(C)CCCC(=O)O)c3ccc(Cl)cc23)cc1Cl [Example 44] | ≤ 0.33
9.74 | COc1ccc(CNc2nnc(N3CCC(O)CC3)c3ccc(C#N)cc23)cc1Cl [Example 4, 4-(3-Chloro-4-methoxybenzyl)amino-6-cyano-1-(4-hydroxypiperidino)phthalazine hydrochloride] | –
8.73 | COc1ccc(CNc2nnc(Cl)c3ccc([N+](=O)[O-])cc23)cc1Cl [Example 49, 1-Chloro-4-(3-chloro-4-methoxybenzyl)amino-6-nitrophthalazine] | 1
7.69 | O=[N+]([O-])c1ccc2c(-n3ccnc3)nnc(NCc3ccc4c(c3)OCO4)c2c1 [Example 60, 1-(Imidazol-1-yl)-4-(3,4-methylenedioxybenzyl)amino-6-nitrophthalazine] | 1
8.36 | COc1ccc(CNc2nnc(N3CCC(O)CC3)c3ccc(Cl)cc23)cc1Cl.Cl [Example 32, 6-Chloro-4-(3-chloro-4-methoxybenzyl)amino-1-(4-hydroxypiperidino)phthalazine hydrochloride] | 1
10.28 | COc1ccc(CNc2nnc(N3CCC(O)CC3)c3ccc([N+](=O)[O-])cc23)cc1Cl [Example 51, 4-(3-Chloro-4-methoxybenzyl)amino-1-(4-hydroxy-piperidino)-6-nitrophthalazine hydrochloride] | –
9.96 | COc1ccc(CNc2nnc(NCc3ccccn3)c3ccc(C#N)cc23)cc1Cl [Example 11, 4-(3-Chloro-4-methoxybenzyl)amino-6-cyano-1-(2-pyridylmethyl)aminophthalazine dihydrochloride] | –
10.00 | COc1ccc(CNc2nnc(N3CCC(CO)CC3)c3ccc([N+](=O)[O-])cc23)cc1Cl.Cl [Example 52, 4-(3-Chloro-4-methoxybenzyl)amino-1-[4-(hydroxymethyl)piperidino]-6-nitrophthalazine hydrochloride] | 10
8.34 | CCOC(=O)C1CCN(c2nnc(NCc3ccc(OC)c(Cl)c3)c3cc([N+](=O)[O-])ccc23)CC1 [Example 55, 1-(4-Ethoxycarbonylpiperidino)-4-(3-chloro-4-methoxybenzyl)amino-6-nitrophthalazine] | ≥ 1
9.92 | COc1ccc(CNc2nnc(N3CCC(C(=O)O)CC3)c3ccc(C#N)cc23)cc1Cl [Example 20, 1-(4-Carboxypiperidino)-4-(3-chloro-4-methoxybenzyl)-amino-6-cyanophthalazine hydrochloride] | 0.3-1
10.52 | COc1ccc(CNc2nnc(N3CCC(CCO)CC3)c3ccc(C#N)cc23)cc1Cl.Cl [Example 8, 4-(3-Chloro-4-methoxybenzyl)amino-6-cyano-1-[4-(2-hydroxyethyl)piperidino]phthalazine hydrochloride] | 10
9.15 | COc1ccc(CNc2nnc(N3CCC(C)(O)CC3)c3ccc(C#N)cc23)cc1Cl.Cl [Example 9, 4-(3-Chloro-4-methoxybenzyl)amino-6-cyano-1-(4-hydroxy-4-methylpiperidino)phthalazine hydrochloride] | 10
10.82 | COc1ccc(CNc2nnc(N3CCC(CO)CC3)c3ccc(C#N)cc23)cc1Cl.Cl [Example 6, 4-(3-Chloro-4-methoxybenzyl)amino-6-cyano-1-[4-(hydroxymethyl)piperidino]phthalazine hydrochloride] | 10
9.43 | COc1ccc(CNc2nnc(N3CCC(C(=O)O)CC3)c3ccc(Cl)cc23)cc1Cl [Example 43, 1-(4-Carboxypiperidino)-6-chloro-4-(3-chloro-4-methoxybenzyl)aminophthalazine] | 1
8.92 | COc1ccc(CNc2nnc(NCCCO)c3ccc(C#N)cc23)cc1Cl [Example 7, 4-(3-Chloro-4-methoxybenzyl)amino-6-cyano-1-(3-hydroxypropyl)aminophthalazine] | 1
7.90 | COc1ccc(CNc2nnc(N3CCC(C(=O)O)CC3)c3ccc([N+](=O)[O-])cc23)cc1Cl.Cl [Example 56, 1-(4-Carboxypiperidino)-4-(3-chloro-4-methoxybenzyl)amino-6-nitrophthalazine hydrochloride] | ≥ 1
9.49 | COc1ccc(CNc2nnc(N3CCC(C(=O)O)CC3)c3cc(Cl)c(Cl)cc23)cc1Cl [Example 67, 1-(4-Carboxypiperidino)-4-(3-chloro-4-methoxybenzyl)amino-6,7-dichlorophthalazine] | 0.33
8.40 | Cl.N#Cc1ccc2c(N3CCC(O)CC3)nnc(NCc3ccc4c(c3)OCO4)c2c1 [Example 26, 6-Cyano-1-(4-hydroxypiperidino)-4-(3,4-methylenedioxy-benzyl)aminophthalazine hydrochloride] | 1
9.28 | COc1ccc(CNc2nnc(N3CCC(=O)CC3)c3ccc(C#N)cc23)cc1Cl.Cl [Example 19, 4-(3-Chloro-4-methoxybenzyl)amino-6-cyano-1-(4-oxopiperidino)phthalazine hydrochloride] | 3-10
8.72 | COc1ccc(CNc2nnc(N3CCC(CO)CC3)c3ccc(Cl)cc23)cc1Cl [Example 36, 6-Chloro-4-(3-chloro-4-methoxybenzyl)amino-1-[4-(hydroxymethyl)piperidino]phthalazine] | ≥ 1
– | COc1ccc(CNc2nnc(N3CCCC(O)C3)c3ccc(C#N)cc23)cc1Cl.Cl (stereo not drawn) [Example 10, 4-(3-Chloro-4-methoxybenzyl)amino-6-cyano-1-(3-hydroxypiperidino)phthalazine hydrochloride] | 10
8.77 | COc1ccc(CNc2nnc(Cl)c3ccc(C#N)cc23)cc1Cl [Example 1, 1-Chloro-4-(3-chloro-4-methoxybenzyl)amino-6-cyanophthalazine] | ≥ 3
9.64 | COc1ccc(CNc2nnc(N3CCC(CCO)CC3)c3ccc([N+](=O)[O-])cc23)cc1Cl.Cl [Example 53, 4-(3-Chloro-4-methoxybenzyl)amino-1-[4-(2-hydroxyethyl)piperidino]-6-nitrophthalazine hydrochloride] | 10
8.74 | COc1ccc(CNc2nnc(N3CCC(CCO)CC3)c3ccc(Cl)cc23)cc1Cl [Example 37, 6-Chloro-4-(3-chloro-4-methoxybenzyl)amino-1-[4-(2-hydroxyethyl)piperidino]phthalazine] | ≤ 0.33
8.85 | COc1ccc(CNc2nn(CCCO)c(=O)c3ccc(C#N)cc23)cc1Cl [Example 25, 4-(3-Chloro-4-methoxybenzyl)amino-6-cyano-2-(3-hydroxypropyl)-1(2H)-phthalazinone] | 3
8.43 | COc1ccc(CNc2nnc(-n3ccnc3)c3ccc(Cl)cc23)cc1Cl [Example 31, 6-Chloro-4-(3-chloro-4-methoxybenzyl)amino-1-(imidazol-1-yl)phthalazine] | 1
